# According to patent publication US4818770A, “Prevention of a plant disease by specific inhibition of fungal polyamine biosynthesis” (priority 1986, dated 1989):
# Where “and” joins values, the source holds several entries; their conditions need not be identical. Equal entries are not always repeated. Where two headings read alike, the source gives them in different places.
# What was measured:
# U. phaseoli [1] = test: Bean rust severity after DFMO and polyamines alone or combined; type: in vivo, Uromyces phaseoli
# tomato plants = test: Effect on growth of uninoculated tomato plants; type: in vivo, Lycoperisicon esculentum; conditions: concentrations up to 20 mM; 28-day observation period
# U. phaseoli [2] = test: Kinetics of bean rust inhibition by delayed postinoculation DFMO; type: in vivo, Uromyces phaseoli
# Verticillium dahliae [3] = test: Radial mycelial growth of Verticillium dahliae in vitro; type: cell-based; conditions: for minimal effective concentration: in vitro
# [4] = tested on: Collectotrichum lagenarium; test: Radial growth in vitro of cucumber anthracnose fungus; type: cell-based, Colletotrichum lagenarium
# Method: See Table 15 for the effect of DFMO on radial growth in vitro on cucumber anthracnose fungus (Colletcotrichum lagenarium). The cucumber anthracnose fungus growing in Czapek's agar in Petri plates is not affected by DFMO up to 5 mM.
# Uromyces phaseoli [5] = test: Bean rust lesions on reinoculated trifoliolate leaves; conditions: for Lesions per cm^2 / Lesions per leaflet: reinoculated trifoliolate leaves
# Text: Trifoliolate leaves were reinoculated with pathogen after 1 week, before
# or after exposure to DFMO, to detect transfer of a protective effect to
# other parts of the plant.
# [6] = Tabor et al. (1985); cited from earlier work
# Verticillium dahliae [7] = test: Verticillium wilt symptoms in Bonny Best tomato after foliar spray; type: in vivo
# U. phaseoli uredospores = test: Uredospore germination on the surface of the unifoliolate bean leaf; type: in vivo, Uromyces phaseoli; conditions: sprayed 1 day before inoculation
# [8] = tested on: Puccinia graminis fsp avenae; type: in vivo
# Uromyces phaseoli [9] = test: Translocation of protective effect in partially treated unifoliolate bean leaves; type: in vivo; conditions: for Lesions per cm^2, treated side / Lesions per cm^2, untreated side / Lesions per half leaf, treated side / Lesions per half leaf, untreated side: 1.0 mM on one longitudinal half leaf
# [10] = tested on: Botrytis sp., B. cinerea, Rhizoctonia solani, Monilinia fructicola; conditions: cited from earlier work; for mycelial growth in vitro: Botrytis sp., B. cinerea, Rhizoctonia solani, Monilinia fructicola
# arginase = molecular target: T1, arginase (Verticillium dahliae, UniProt G2WV09); test: Arginase activity in mycelium extracts with DFMA as substrate; type: biochemical; conditions: mycelium of 12-day old cultures
# T1 construct: urea release from arginine or DFMA
# T1 sequence (G2WV09 1-327): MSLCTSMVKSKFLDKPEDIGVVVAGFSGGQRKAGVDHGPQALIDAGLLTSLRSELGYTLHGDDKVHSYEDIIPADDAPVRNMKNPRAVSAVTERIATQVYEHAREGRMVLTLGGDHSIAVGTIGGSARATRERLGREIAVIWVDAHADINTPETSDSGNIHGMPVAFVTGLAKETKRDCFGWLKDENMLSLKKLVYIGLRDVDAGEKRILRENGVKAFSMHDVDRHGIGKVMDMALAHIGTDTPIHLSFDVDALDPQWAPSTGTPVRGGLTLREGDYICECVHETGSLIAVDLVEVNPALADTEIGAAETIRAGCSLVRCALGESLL
# Method: Ornithine decarboxylase and ADCase activity determinations were carried out on 12-day-old mycelium of the fungus cultured on liquid Czapek-Dox medium containing 1% glucose as the carbon source.
# Ornithine decarboxylase and ADCase were assayed by the methods of Kaur-Sawhney et al. (4) using D,L-[1-14 C]ornithine and L-[U14 C]arginine as substrates for the respective enzymes. Arginase activity was determined by the methods of Schimke (9), using arginine and DFMA as substrates, and 1-phenyl-1,2-propanedione-2-oxime to detect the urea release by the enzyme. Controls for the arginase determinations were boiled mycelial extracts, and results were adjusted to compensate for readings obtained from substrate blanks. Protein determinations were by the […] method (1), using bovine serum albumin as a reference standard. Difluoromethylornithine and DFMA are products of Merrell-Dow, and are available from them. All other reagents were from Sigma Biochemicals. All experiments were replicated 3 times and repeated twice. Variaions within experiments were generally less than 5%.
# [11] = DFMO 0.05 mM alone, postinoculation
# [12] = 1.0 mM DFMO sprayed 1 d after spore inoculation
# [13] = 1.0 mM DFMO sprayed 2 d after spore inoculation
# [14] = 1.0 mM DFMO sprayed 3 d after spore inoculation
# [15] = 1.0 mM DFMO sprayed 4 d after spore inoculation
# [16] = 1.0 mM DFMO sprayed 5 d after spore inoculation
# [17] = postinoculation exposure, DFMO 0.05 mM
# [18] = postinoculation exposure, DFMO 0.1 mM
# [19] = postinoculation exposure, DFMO 0.5 mM
# [20] = postinoculation exposure, DFMO 1.0 mM
# [21] = postinoculation exposure, DFMO 5.0 mM
# [22] = preinoculation exposure, DFMO 0.05 mM
# [23] = preinoculation exposure, DFMO 0.1 mM
# [24] = preinoculation exposure, DFMO 0.5 mM
# [25] = preinoculation exposure, DFMO 1.0 mM
# [26] = preinoculation exposure, DFMO 5.0 mM
smiles,measurement,setting,value
"NCCCC(N)(C(=O)O)C(F)F (racemic) [DFMO, DL-alpha-difluorimethylornithine]",reduction of number of lesions,U. phaseoli [1]; 0.05 mM DFMO alone,70%
same,Lesions per cm^2,U. phaseoli [1]; [11],22 ± 4 per cm^2
same,Lesions per leaf,U. phaseoli [1]; [11],1223 ± 268 per leaf
same,"Lesions per leaf, percent of control",U. phaseoli [1]; [11],30% of control
same,inhibition at 50 µM,"U. phaseoli [1]; Uromyces phaseoli, 0.05 mM DFMO, read-out: inhibition of uredial development",~50%
same,growth and development of uninoculated tomato plants,tomato plants,no apparent effects on the growth and development of the plants
same,Lesions per cm^2,U. phaseoli [2]; [12],0 per cm^2
same,Lesions per leaf,U. phaseoli [2]; [12],0 per leaf
same,Lesions per cm^2,U. phaseoli [2]; [13],0 per cm^2
same,Lesions per leaf,U. phaseoli [2]; [13],0 per leaf
same,Lesions per cm^2,U. phaseoli [2]; [14],0 per cm^2
same,Lesions per leaf,U. phaseoli [2]; [14],0 per leaf
same,Lesions per cm^2,U. phaseoli [2]; [15],41 ± 5 per cm^2
same,Lesions per leaf,U. phaseoli [2]; [15],2330 ± 211 per leaf
same,Lesions per cm^2,U. phaseoli [2]; [16],53 ± 4 per cm^2
same,Lesions per leaf,U. phaseoli [2]; [16],3278 ± 326 per leaf
same,minimal effective concentration,"Verticillium dahliae [3]; Verticillium dahliae, 192 h, 8 days, read-out: concentration reducing radial (mycelial) growth",≥ 5 µM
same,minimal effective concentration,"Verticillium dahliae [3]; Verticillium dahliae, read-out: concentration inhibiting pigment synthesis",≥ 500 µM
same,effect of 1 mM putrescine on DFMO-induced growth inhibition,Verticillium dahliae [3]; putrescine added to culture medium,reversed
same,Radial growth (cm),[4]; 0.10 mM,4.5 cm
same,Radial growth (cm),[4]; 0.25 mM,4.5 cm
same,Radial growth (cm),[4]; 0.50 mM,4.5 cm
same,Radial growth (cm),[4]; 0.65 mM,4.4 cm
same,Radial growth (cm),[4]; 1.00 mM,4.0 cm
same,Radial growth (cm),[4]; 5.00 mM,3.8 cm
same,inhibition of growth at 650 µM,"[4]; Colletotrichum orbiculare, 0.65 mM, read-out: Percent control",2%
same,inhibition of growth at 1000 µM,"[4]; Colletotrichum orbiculare, 1.00 mM, read-out: Percent control",7%
same,inhibition of growth at 5000 µM,"[4]; Colletotrichum orbiculare, 5.00 mM, read-out: Percent control",16%
same,effect on fungus growing in Czapek's agar,[4]; up to 5 mM,not affected
same,protection of newly emerged trifoliolate leaves,"Uromyces phaseoli [5]; 5.0 mM DFMO, reinoculated after 1 week",complete protection
same,Lesions per cm^2,Uromyces phaseoli [5]; [17],59 ± 1 per cm^2
same,Lesions per leaflet,Uromyces phaseoli [5]; [17],1246 ± 73 per leaflet
same,Lesions per cm^2,Uromyces phaseoli [5]; [18],58 ± 4 per cm^2
same,Lesions per leaflet,Uromyces phaseoli [5]; [18],1289 ± 131 per leaflet
same,Lesions per cm^2,Uromyces phaseoli [5]; [19],41 ± 4 per cm^2
same,Lesions per leaflet,Uromyces phaseoli [5]; [19],982 ± 84 per leaflet
same,Lesions per cm^2,Uromyces phaseoli [5]; [20],22 ± 2 per cm^2
same,Lesions per leaflet,Uromyces phaseoli [5]; [20],422 ± 13 per leaflet
same,Lesions per cm^2,Uromyces phaseoli [5]; [21],0 per cm^2
same,Lesions per leaflet,Uromyces phaseoli [5]; [21],0 per leaflet
same,Lesions per cm^2,Uromyces phaseoli [5]; [22],64 ± 5 per cm^2
same,Lesions per leaflet,Uromyces phaseoli [5]; [22],1458 ± 92 per leaflet
same,Lesions per cm^2,Uromyces phaseoli [5]; [23],55 ± 3 per cm^2
same,Lesions per leaflet,Uromyces phaseoli [5]; [23],1274 ± 120 per leaflet
same,Lesions per cm^2,Uromyces phaseoli [5]; [24],39 ± 7 per cm^2
same,Lesions per leaflet,Uromyces phaseoli [5]; [24],1172 ± 158 per leaflet
same,Lesions per cm^2,Uromyces phaseoli [5]; [25],16 ± 2 per cm^2
same,Lesions per leaflet,Uromyces phaseoli [5]; [25],320 ± 22 per leaflet
same,Lesions per cm^2,Uromyces phaseoli [5]; [26],0 per cm^2
same,Lesions per leaflet,Uromyces phaseoli [5]; [26],0 per leaflet
same,toxicity,[6],low toxicity
same,symptoms of Verticillium wilt compared to controls,"Verticillium dahliae [7]; 2.5 mM and 10 mM, 24 hours after inoculation",suppressed symptoms
same,most effective time for application,"Verticillium dahliae [7]; 5 mM DFMO, symptoms 21 days after inoculation",24-48 hours post-inoculation
same,delay of onset of symptom expression,Verticillium dahliae [7]; increasing concentration from 2.5 to 10 mM,up to 7 days
same,wilt symptoms,"Verticillium dahliae [7]; spores applied to the soil, DFMO applied to the leaves",greatly suppressed
same,spore germination on leaf surface,U. phaseoli uredospores; lower concentrations of DFMO,partially inhibited
same,spore germination on leaf surface,U. phaseoli uredospores; more than 0.5 mM DFMO,completely inhibited
same,Percent control,[8]; 0.01 mM,50.7% and 50%
same,Percent control,[8]; 0.025 mM,63.2%
same,Percent control,[8]; 0.065 mM,65.5%
same,Percent control,[8]; 0.10 mM,71.0%
same,Percent control,[8]; 0.13 mM,67.9%
same,Percent control,[8]; 0.16 mM,77.3%
same,protection of the untreated half of the leaf,Uromyces phaseoli [9]; petiolar or apical half treated with 1 mM DFMO,the other half was also protected against infection
same,"Lesions per cm^2, treated side",Uromyces phaseoli [9]; postinoculation exposure,0 per cm^2
same,"Lesions per cm^2, untreated side",Uromyces phaseoli [9]; postinoculation exposure,0 per cm^2
same,"Lesions per half leaf, treated side",Uromyces phaseoli [9]; postinoculation exposure,0 per half leaf
same,"Lesions per half leaf, untreated side",Uromyces phaseoli [9]; postinoculation exposure,0 per half leaf
same,"Lesions per cm^2, treated side",Uromyces phaseoli [9]; preinoculation exposure,0 per cm^2
same,"Lesions per cm^2, untreated side",Uromyces phaseoli [9]; preinoculation exposure,22 ± 4 per cm^2
same,"Lesions per half leaf, treated side",Uromyces phaseoli [9]; preinoculation exposure,0 per half leaf
same,"Lesions per half leaf, untreated side",Uromyces phaseoli [9]; preinoculation exposure,617 ± 112 per half leaf
same,mycelial growth in vitro,[10],inhibited mycelial growth
"N=C(N)NCCC[C@](N)(C(=O)O)C(F)F [DFMA, alpha-difluoromethylarginine]",inhibition at 500 µM,"Verticillium dahliae [3]; Verticillium dahliae, read-out: inhibition of radial growth relative to that observed with DFMO",~50%
same,arginase activity with DFMA as substrate,arginase; isolate TS-1B,7.1 pM urea/hr/mg protein
same,arginase activity with DFMA as substrate,arginase; isolate TS-2B,11.3 pM urea/hr/mg protein
same,symptom severity and time of symptom expression,Verticillium dahliae [7]; concentrations up to 10 mM,did not alter either symptom severity nor time of symptom expression
same,Percent control,[8]; 0.01 mM,40.4%
same,Percent control,[8]; 0.025 mM,32.6%
same,Percent control,[8]; 0.065 mM,41.9%
same,Percent control,[8]; 0.10 mM,53.1%
same,Percent control,[8]; 0.13 mM,61.5%
same,Percent control,[8]; 0.16 mM,57.0%
same,Percent control,[8]; 0.20 mM,63.8%
same,Percent control,[8]; 1.00 mM,86.0%
same,effectiveness against oat stem rust compared with DFMO,[8]; in vivo,nearly as effective as DFMO
same,mycelial growth in vitro,[10],inhibited mycelial growth
same,relative inhibition of fungal growth in vitro,"[10]; Plant Cell Physiol. (1985), vol. 26, 683-692",more effective inhibitor of fungal growth than was DFMO
